From PubChem BioAssay (NCI)
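Growth conditions: 96-well plates. Treatment: test compound, 48 hours, 5 concentrations. Analysis: linear interpolation between bracketing concentrations; unreached endpoints set to highest concentration. Here, GI50 denotes the concentration required for 50% inhibition of growth. TGI denotes the concentration required for complete inhibition of growth.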

Experiments:
Experiment in all cases: DTP human tumour cell line panel, 48 h
RPMI-8226 leukemia = test system: RPMI-8226 leukemia
COLO 205 colon = test system: COLO 205 colon
SF-268 CNS = test system: SF-268 CNS
UACC-62 melanoma = test system: UACC-62 melanoma
UO-31 renal = test system: UO-31 renal
MDA-MB-231 breast = test system: MDA-MB-231 breast
A549 NSCLC = test system: A549 NSCLC
UACC-257 melanoma = test system: UACC-257 melanoma
MDA-N = test system: MDA-N
LOX IMVI melanoma = test system: LOX IMVI melanoma

SMILES	TGI (RPMI-8226 leukemia) [µM]	TGI (COLO 205 colon) [µM]	TGI (SF-268 CNS) [µM]	TGI (UACC-62 melanoma) [µM]	TGI (UO-31 renal) [µM]	TGI (MDA-MB-231 breast) [µM]	TGI (A549 NSCLC) [µM]	TGI (UACC-257 melanoma) [µM]	TGI (MDA-N) [µM]	TGI (LOX IMVI melanoma) [µM]	GI50 (RPMI-8226 leukemia) [µM]	GI50 (COLO 205 colon) [µM]	GI50 (SF-268 CNS) [µM]	GI50 (LOX IMVI melanoma) [µM]	GI50 (UACC-62 melanoma) [µM]	GI50 (UO-31 renal) [µM]	GI50 (MDA-MB-231 breast) [µM]	GI50 (A549 NSCLC) [µM]	GI50 (UACC-257 melanoma) [µM]
CCOC(=O)c1c(SCc2cc(=O)[nH]c(=O)[nH]2)n(-c2ccccc2)c(=S)n(-c2ccccc2)c1=O	> 100	> 100	> 100	> 100	> 100	> 100	> 100	> 100	> 100										
CCCCNC(=O)Cn1c2ccc(Br)cc2c2nc3ccccc3nc21	> 100	> 100	> 100	> 100	> 100	> 100	> 100	> 100	> 100	> 100									
N#Cc1c(-c2ccc([N+](=O)[O-])cc2)c(C#N)c(=O)n(NS(=O)(=O)c2ccccc2)c1O	> 100	> 100		> 100		> 100	> 100	> 100	> 100	> 100									
COc1ccc(C2C=C(c3ccc(C)cc3)N(c3ccc(OC)cc3[N+](=O)[O-])C3C(=O)OC(=O)C23)c(OC)c1 (stereo not drawn)	56.5	> 100	> 100	> 100		> 100	> 100	> 100		57									
CC1(C)N=C(N)N=C(N)N1c1cccc(Cl)c1		> 100	> 100	> 100	> 100	> 100	> 100	> 100	> 100	> 100									
CC(C)(C)N=NC(C)(C)N=C=O	> 100	> 100	> 100	> 100	> 100		> 100	> 100		> 100									
CO[P@@]1(=O)O[C@@H](c2ccccc2)[C@H](O)[C@]1(O)c1ccccc1	> 100	> 100	> 100	> 100	> 100	> 100	> 100	> 100	> 100	> 100									
CC(C)(C)/C(O)=C\c1nc2cc(F)c(F)cc2[nH]c1=O		> 100	> 100	> 100	> 100	71.7		> 100		> 100									
CC[C@]12C=CCN3CCC4(c5cc([C@@]6(C(=O)OC)CC7CN(CCc8c6[nH]c6ccccc86)CC6CCCCC67)c(OC)cc5N(C)C4[C@](O)(C(=O)OC)C1OC(C)=O)[C@@H]32 (stereo partly drawn)	61.3	< 0.01	1.47	1.7	7.31	0.0655	12.6	18.8		6.46									
CC(=O)Oc1ccn2nc(C)c(Br)c2c1		75.5	> 100	> 100		> 100	> 100	99.5	> 100	> 100									
C=CN(C=C)C(=O)Cn1cc(-c2ccccc2)nn1	> 100	> 100	> 100			> 100	> 100	> 100		> 100									
O=C1c2cc3c(cc2CC12Cc1ccc4c(c1C2=O)CCC4)CCC3 (stereo not drawn)	> 100		> 100		> 100	> 100	> 100	> 100	> 100	> 100									
O=c1c2cc([N+](=O)[O-])ccc2oc2nc3n(c(=O)c12)CCCS3	> 100	> 100	> 100	> 100	> 100	> 100	> 100	> 100	> 100										
CN1C2=Nc3n(c4ccccc4[n+]3C)CN2c2ccccc21	> 100	41.9	44.1	42.6	> 100	> 100	> 100	> 100	50.5										
Oc1ccccc1/C=N/N1C(=S)N(C23CC4CC(CC(C4)C2)C3)C(=Nc2ccccc2)C1=Nc1ccccc1	> 100	> 100	> 100	> 100	> 100	> 100	> 100	> 100	> 100										
OC(CC(O)(C(F)(F)Cl)C(F)(F)Cl)c1ccccc1 (stereo not drawn)	> 10	> 10	> 10	> 10		> 10	> 10	> 10	> 10	> 10									
O=c1c2ccc(Cl)cc2oc2c(CNc3ccc(S(=O)(=O)Nc4ncccn4)cc3)cccc12	> 100	> 100		> 100	> 100	> 100	> 100	> 100	> 100	> 100									
COc1ccc(C(=O)/C=C/SC(=NC#N)SC)cc1	> 100	38.8	70.3	43.8	37.4	33.2	> 100	40.5											
CCN(CC)CCCCNc1c2ccc(Cl)cc2nc2ccc(OC)cc12	4.2	1.32	3.33	3.47	3.31	2.11	2.58	3.91		0.583	0.566	0.24	0.797	0.213	1.69	0.759	0.478	0.367	1.8
O=[N+]([O-])c1ccc(-c2csc(=[N+]3CCCCC3)s2)cc1	> 100	5.58	> 100	> 100	> 100		> 100	31.4		> 100									
CC(C)=C/C(CC(O)(C(F)(F)F)C(F)(F)F)=N\O	> 100	> 100	> 100	> 100	> 100	> 100	> 100	> 100		> 100									
O=c1c2c3c(sc2nc2n1N=C(c1ccc(Br)cc1)CS2)CCCC3		> 100	> 100	> 100	> 100	> 100	> 100	> 100	> 100	> 100									
